Assay results: patent US20210348119A1, “COMPOSITIONS AND METHODS FOR CELL CULTURE” (The United States of America as Represented By The …, priority 2018, published 2021)
Where “and” joins values, the source holds several entries; their conditions need not be identical. Equal values may be shown once. Read-outs that look alike come from different tables or passages of the source.

How the values were obtained:
H9 cells [1] = experiment: qHTS for survival of dissociated H9 cells (CellTiter-Glo, 24 hours after seeding); type: cell-based, human; settings: for AC50: CellTiter-Glo 24 hours after seeding, read-out: AC50 (concentration at 50% efficacy)
Excerpt: FIG. 2 schematically illustrates qHTS procedure.
All the screed compounds were received pre-plated at the pre-determined concentrations. […] Curve classification is explained in Huang et al. “Chemical genomics profiling of environmental chemical modulation of human nuclear receptors” Environ. Health. Perspect.

H9 cells [2] = experiment: Combinatorial matrix screening for synergistic effects on cell survival; type: cell-based, human; settings: 10×10 matrix, normalized to 10 μM Y-27632
Description: Combinatorial matrix screening was performed to identify the compounds with synergistic effects on cell survival. Focusing on the compounds with different mechanisms of action, 29 compounds were selected for combinational matrix screening, resulting in 812 sets of 10×10 checkerboard matrix experiments (data not shown), four of which are illustrated in FIG. 9. The concentrations of the compounds for combinational matrix screening were optimized based on the slope and potency (AC50) derived from single-agent qHTS dose-response curves, so that the matrix screen covered a wide range of biological effect observed in the cell viability assay. […] The numerals in each 10×10 matrix show the maximum survival achieved with the indicated combinations or single agents. The maximum survival achieved by each pair of compounds is represented by the highest numbers in each 10×10 matrix, the examples of which are shown in FIG. 9. The bottom matrices depict the synergy matrix calculated using highest-single agent (HSA) model. The HSA synergy assesses the pro-survival benefit of compound combination compared to single agent alone, which was computed as the difference between cell survival out of combination and that from the best single agent at each tested concentration. Synergy is defined as the difference between the combination and max response with single agent (synergy=combination max (single agent A, single agent B).

H9 cells [3] = experiment: Dose-response curves of selected ROCK inhibitors, cell survival (CTG); type: cell-based, human; settings: four replicates, normalized to CTG reading at 10 μM Y-27632
Excerpt: Molar concentrations of the selected ROCK inhibitors are plotted on the X-axis (log scale). […] Thusly normalized data were plotted on the Y-axis.

ROCK1 = molecular target: T1, ROCK1 (Homo sapiens, UniProt Q13464); experiment: HotSpot Kinase Assay (Reaction Biology) ROCK1; type: biochemical
T1 construct: purchased Reaction Biology Corporation (Malvern, Pa.)
T1 sequence (Q13464 whole entry): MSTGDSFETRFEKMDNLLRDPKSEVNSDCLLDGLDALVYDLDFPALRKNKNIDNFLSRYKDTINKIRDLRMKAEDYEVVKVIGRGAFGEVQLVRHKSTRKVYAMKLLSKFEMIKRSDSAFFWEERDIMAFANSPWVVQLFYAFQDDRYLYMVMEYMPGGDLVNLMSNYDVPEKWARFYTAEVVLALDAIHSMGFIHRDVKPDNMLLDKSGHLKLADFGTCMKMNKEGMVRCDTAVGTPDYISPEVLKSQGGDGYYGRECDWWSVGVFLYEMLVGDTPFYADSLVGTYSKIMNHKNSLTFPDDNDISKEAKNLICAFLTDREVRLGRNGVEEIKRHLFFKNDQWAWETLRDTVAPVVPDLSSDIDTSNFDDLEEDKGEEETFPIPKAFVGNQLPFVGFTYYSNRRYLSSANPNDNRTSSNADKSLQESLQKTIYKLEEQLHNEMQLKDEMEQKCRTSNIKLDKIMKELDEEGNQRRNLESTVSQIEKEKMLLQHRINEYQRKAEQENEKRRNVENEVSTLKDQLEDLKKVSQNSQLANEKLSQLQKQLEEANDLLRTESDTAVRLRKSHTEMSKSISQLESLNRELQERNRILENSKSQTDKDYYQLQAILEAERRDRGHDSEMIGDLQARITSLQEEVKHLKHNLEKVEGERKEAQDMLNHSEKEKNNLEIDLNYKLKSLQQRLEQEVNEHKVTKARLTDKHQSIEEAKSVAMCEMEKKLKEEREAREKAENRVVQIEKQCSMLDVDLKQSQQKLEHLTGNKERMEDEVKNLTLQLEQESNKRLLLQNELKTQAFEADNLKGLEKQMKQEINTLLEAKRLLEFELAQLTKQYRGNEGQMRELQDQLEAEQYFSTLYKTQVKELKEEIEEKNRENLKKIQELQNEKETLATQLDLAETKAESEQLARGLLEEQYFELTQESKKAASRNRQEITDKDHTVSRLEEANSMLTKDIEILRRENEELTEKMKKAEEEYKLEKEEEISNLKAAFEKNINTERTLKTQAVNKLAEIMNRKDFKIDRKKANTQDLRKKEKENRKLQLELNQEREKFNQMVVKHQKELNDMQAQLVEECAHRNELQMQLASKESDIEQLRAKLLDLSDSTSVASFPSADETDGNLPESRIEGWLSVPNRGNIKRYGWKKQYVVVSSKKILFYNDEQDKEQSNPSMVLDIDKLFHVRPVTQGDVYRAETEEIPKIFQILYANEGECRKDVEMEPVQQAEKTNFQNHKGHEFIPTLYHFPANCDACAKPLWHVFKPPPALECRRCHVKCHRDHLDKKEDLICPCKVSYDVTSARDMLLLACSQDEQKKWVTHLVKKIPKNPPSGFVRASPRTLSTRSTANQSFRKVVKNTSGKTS

human kinases = experiment: Kinase profiling, HotSpot Kinase Assay; type: biochemical; settings: Y-27632 at 10 μM, Chroman 1 at 50 nM; for specificity / off-target inhibition: under 10% of original activity deemed significant
Excerpt: The results of kinase profiling experiments are illustrated in FIG. 8. […] The phylogenic trees of human kinases were generated based on a neighbor-joining tree via ClustalW software derived from multiple protein sequence alignment of human kinase domains (Manning et al., “The protein kinase complement of the human genome” Science 298:1912-1934 (2002)).

H9 cells [4] = experiment: Survival and attachment of single-cell dissociated cells (CellTiter-Glo, time-lapse imaging); type: cell-based, human; settings: 50 nM Chroman 1, 5 μM Emricasan; vitronectin-coated plates, over 24 hours
Description: CellTiter-Glo® assay was used to quantify viable […] cells 24 hours post-plating (100,000 cells/[…]). […] Cellular stress was already apparent 20 minutes after plating in the presence of Emricasan, which ultimately led to dead cells at 24 hours.

H9 cells [5] = experiment: Cell survival after routine passage (caspase 3/7 imaging, CTG); type: cell-based, human; settings: 100,000 cells per cm^2; 10 μM Y-27632, 50 nM Chroman 1, 5 μM Emricasan
H9 cells [6] = experiment: Long-term passaging of H9 cells (40 passages); type: cell-based, human; settings: 24 hours treatment at every passage
H9 cells [7] = experiment: Embryoid body formation assays; settings: AggreWell plates, 24 hours after seeding
Description: In one series of experiments, H9 cells were dissociated with Accutase. […] Embryoid body (EB) formation was examined 24 hours after cell seeding.
In a different experimental approach (data not shown), a defined number of H9 cells was plated into AggreWell™ plates (StemCell Technologies, Vancouver, Canada) to generate single EBs per well. Embryoid body (EB) formation was examined 24 hours after cell seeding.
Pluripotent stem cells (WA09, also called H9 cells, obtained from WiCell, Madison, Wis.) dissociated with Accutase were seeded into AggreWell™ plates (StemCell Technologies, Vancouver, Canada) to generate EBs. Bright field images were taken 24 hours after seeding.
H9 cells dissociated with Accutase were seeded into 96-well plates (ultra-low attachment) to generated EBs. After 24 hours, calcein (green staining, live cells) and PI (red staining, dead cells) were added to the cell culture medium to visualize live and dead cells in the wells.

H9 cells [8] = experiment: Propidium iodide dead cell count of dissociated H9 cells; type: cell-based, human; settings: 10 μM Y-27632 vs 50 nM Chroman 1; 12 hours after plating; EDTA or Accutase dissociation
Description: H9 cells were dissociated with 0.5 mM ethylenediaminetetraacetic acid (EDTA) or Accutase (enzymatic dissociation) according to standard procedures and seeded into vitronectin coated 6-well plates. Phase-contrast and fluorescence microscopy digital images were taken 12 hours after cell plating (data not shown). To generate the fluorescence microscopy images, live cells were stained with Calcein (0.5 μg/ML; Thermo Fisher Scientific, catalog number: C34852), and dead cells were stained with propidium iodide (PI; 500 nM; Thermo Fisher Scientific, catalog number: P3566). For quantitative analysis, the cells were counted using an automated cell counter (Cellometer Auto 2000, Nexcelom). The results of PI staining are illustrated in the bar graph shown in the right panel of FIG. 5.

OCT4 expressing cells = experiment: Microscopy of stress mechanisms during cell passaging; type: cell-based; settings: 3 hours post-plating
Description: The scale bars shown are 10 μm. Upper panel illustrates confocal microscopic analysis of the lamin B1-GFP iPSC reporter line (Allen Insitute for Cell Science, Seattle, Wash.) displaying dramatic morphological differences in nuclear shape during cell passaging (30 min after plating). […] Lower panel illustrates dramatic cytoskeletal differences during cell passaging (3 hours post-plating), as measured by immunocytochemistry against actin and myosin.

hESCs (H9) = experiment: Western blot of hESCs after passaging; type: cell-based, human; settings: 3 hours post-passage
Excerpt: GAPDH was used as a loading control and house-keeping protein control.
Higher observed levels of phosphorylated CHK2 on threonine 68 indicated cell cycle arrest.

[9] = H9 cell survival normalized to 10 μM Y-27632 (taken to be 100%)
[10] = H9 cell survival, normalized to 10 μM Y-27632
[11] = Homo sapiens, H9, 24 h, H9 cell survival normalized to 10 μM Y-27632 (taken to be 100%), read-out: Max (maximum activity value from all tested concentrations)
[12] = Homo sapiens, H9, 24 h, H9 cell survival
[13] = Homo sapiens, H9, 24 h, H9 cell survival, normalized to 10 μM Y-27632, read-out: Efficacy (activity range between predicted activities at zero and infinite doses, Hill equation)

Row | Molecule | Max (maximum activity value from all tested concentrations) (H9 cells [1]; [9]) | Efficacy (activity range between predicted activities at zero and infinite doses, Hill equation) (H9 cells [1]; [10]) | Emax (H9 cells [1]; [11]) | Emax (H9 cells [1]; [13]) | AC50 (H9 cells [1]; H9 cell survival) | also measured
1 | Cc1ccc2c(c1)C(=O)C1(O)CCN(c3ccccc3)C1=N2 (single isomer, unassigned; (-)) [(−)-Blebbistatin] | 90.71% and 107.8% | 105 and 96 | – | – | – | synergy with Chroman 1 on cell survival (HSA model) (H9 cells [2]): lacking synergy
2 | COc1ccc2c(c1)C[C@H](C(=O)Nc1ccc(-c3cn[nH]c3)cc1OCCN(C)C)CO2 [Chroman 1, (3S)—N-{2-[2-(Dimethylamino)ethoxy]-4-(1H-pyrazol-4-yl)phenyl}-6-methoxy-3,4-dihydro-2H-1-benzopyran-3-carboxamide] | – | – | 110% | 108% | – | AC50 (H9 cells [1]; [12]): 290 nM; potency in dose-response of cell survival (H9 cells [3]): more potent than to Y-27632, Thiazovivin or Fasudil; IC50 against ROCK1 (comparison in words) (ROCK1): more potent ROCK inhibitor than Y-27632; primary targets (human kinases): ROCK1 and ROCK2; specificity / off-target inhibition (human kinases): higher specificity; cell attachment and survival in time-lapse imaging (H9 cells [4]): cell attachment already 20 min after plating; cell survival after single-cell dissociation (H9 cells [5]): further improved cell survival; karyotype after long-term passaging (H9 cells [6]): maintained a normal karyotype; single EB formation and dead cells (H9 cells [7]): amount of dead cells was significantly lower
3 | C[C@H](NC(=O)C(=O)Nc1ccccc1C(C)(C)C)C(=O)N[C@@H](CC(=O)O)C(=O)COc1c(F)c(F)cc(F)c1F [Emricasan, 3-(2-(2-tert-butylphenylaminooxalyl)aminopropionylamino)-4-oxo-5-(2,3,5,6-tetrafluorophenoxy)pentanoic acid] | – | – | – | – | – | Emax (H9 cells [1]; Homo sapiens, H9, 24 h, read-out: Efficacy (activity range between predicted activities at zero and infinite doses, Hill equation)): 95.8%; Emax (H9 cells [1]; Homo sapiens, H9, 24 h, read-out: Max (maximum activity value from all tested concentrations)): 76.4%; AC50 (H9 cells [1]; Homo sapiens, H9 cell survival): 33200 nM; synergy with Chroman 1 on cell survival (HSA model) (H9 cells [2]): synergistic with Chroman 1; cell attachment and survival in time-lapse imaging (H9 cells [4]): not sufficient to improve cell viability beyond 24 hours; single EB formation and dead cells (H9 cells [7]): did not result in proper cell aggregation and EB formation
4 | CC(C)[C@H](NC(=O)c1ccc2ccccc2n1)C(=O)N[C@@H](CC(=O)O)C(=O)COc1c(F)cccc1F [Q-VD-OPh hydrate] | 93.54% | 85.9 | – | – | 1170 nM | synergy with Chroman 1 on cell survival (HSA model) (H9 cells [2]): synergistic with Chroman 1
5 | C[C@H]1[C@H](C)CC[C@]2(C(=O)O)CC[C@]3(C)C(=CC[C@@H]4[C@@]5(C)CC[C@H](O)C(C)(C)[C@@H]5CC[C@]43C)[C@H]12 [URSOLIC ACID] | – | – | 22.3% | 11.7% | – | AC50 (H9 cells [1]; [12]): 521 nM
6 | N#Cc1cc(F)cc(-c2nc(-c3ccccn3)no2)c1 [VU 0285683] | 21.28% | 0 | – | – | – | –
7 | O=C(Nc1ccc(-c2ccnc(Nc3ccc(N4CCOCC4)cc3)n2)cc1)[C@@H]1CCCN1 [XL-19] | 29.98% | 35.5 | – | – | 23300 nM | –
8 | C[C@@H](N)[C@H]1CC[C@H](C(=O)Nc2ccncc2)CC1 [Y-27632] | – | – | 95.5% | 96.2% | – | number of propidium iodide-positive dead cells (H9 cells [8]): higher number of dead cells than Chroman 1 treatment; primary targets (human kinases): ROCK1 and ROCK2; specificity / off-target inhibition (human kinases): a number of off-targets, including PKCeta (also known as PKC η or PRKCH), PKCepsilon (also known as PKC ε or PRKCE), PKCdelta (also known as PKC δ or PRKCD), PKN1, PKN2 and PRKX; cell survival after single-cell dissociation (H9 cells [5]): beneficial; cytoskeleton (actin, myosin immunocytochemistry) (OCT4 expressing cells): form prominent actin stress fibers at the colony edge; γH2AX immunoreactivity (OCT4 expressing cells): immunoreactive for γH2AX; phosphorylated eIF2A at serine 51 (hESCs (H9)): High levels of p-eIF2A(S51); stress response markers (γH2AX, ATF4) (hESCs (H9)): Strong stress response; single EB formation and dead cells (H9 cells [7]): Dead cells surrounded the EBs
9 | C[C@@H](N)c1ccc(C(=O)Nc2ccnc3[nH]ccc23)cc1 [Y-39983] | – | – | 127% | 121% | – | –
10 | Cc1sc2c(c1C)C(c1ccc(Cl)cc1)=N[C@@H](CC(=O)NCCCCNC(=O)COc1cccc3c1C(=O)N(C1CCC(=O)NC1=O)C3=O)c1nnc(C)n1-2 (some centres unmarked) [dBETI] | 62.14% | −67.9 | – | – | 4 nM | –
11 | C/C=C/C(=O)C(C)C1=CC(=O)C2=C(OC34CC[C@H](O)C(C)(C)[C@@H]3CC[C@H](C)C4(C)C2)C1=O (some centres unmarked) [podosporin A] | 26.17% | 0 | – | – | – | –
12 | c1ccc2c3c([nH]c2c1)CNCC3 [tryptoline] | – | – | 27.9% | -33.1% | – | AC50 (H9 cells [1]; [12]): 0.9 nM
13 | (−)-Indolactam V | 51.21% | 45.5 | – | – | 833 nM | –
